The source of these data is paper PMC7219108, “Pisum sativum Defensin 1 Eradicates Mouse Metastatic Lung Nodules from B16F10 Melanoma Cells” (International Journal of Molecular Sciences, 2020).

The nature of data set [1]: Body weight of mice in the B16F10 metastasis experiment. Type of data set: in vivo, mouse. Particulars: 0.1, 1 and 3 mg/kg Psd1 i.v. with B16F10 cells, 21 days; animals with B16F10 only lost weight. The source says: Figure 6 Protective effects of Psd1 on a model of experimental lung metastasis in vivo. B16F10 mouse melanoma tumors were established by intravenous injection of 2.5 × 10^5 B16F10 cells into C57BL/6 mice. (A) After 21 days, mice from each experimental group were sacrificed, and the number of visible lung metastatic nodules was quantified. Treatment of the animals inoculated with melanoma cells plus Psd1 caused a dose-dependent reduction in the number of lung metastases. Black lines represent the mean ± SEM of two independent experiments analyzed by one-way ANOVA and Bonferroni’s multiple comparison test. **** p < 0.0001 B16F10 vs. phosphate buffer solution (PBS); **** p < 0.0001 B16F10 vs. Psd1 1 mg/kg; **** p < 0.0001 B16F10 vs. just Psd1 1 mg/kg (without B16F10 cells); *** p < 0.001 B16F10 vs. Psd1 3 mg/kg; * p < 0.05 B16F10 vs. Psd1 0.5 mg/kg. (B) Representative images of lung metastatic nodules from animals that received just PBS or B16F10 cells alone or together with 0.1 mg/kg or 1 mg/kg Psd1. Bar = 2 mm. (C) Animal weights were acquired every two days. Weight variation was calculated as (weight on that day (weight of the first day × 100 − 100)). Only the days with higher weight differences between animals injected with only B16F10 cells and those that received cells plus Psd1 or PBS alone are represented. […]

For data set [2] the following is noted: cited from earlier work. The source says:
(§1) The mechanism of action proposed for Psd1 antifungal activity includes its interaction with specific cell wall/membrane lipid targets, such as C8-desaturated and C9-methylated glucosylceramide (GlcCer), a fungal exclusive GSL, and ergosterol.

In data set [3] the test system is several fungal species. Particulars: cited from earlier work.
From the text: as §1

Data set [4] deals with HSP-2 (human hepatocyte) cells. In words: Cell viability, healthy HSP-2 cells. Particulars: 6 and 30 µM, 3 h. In kind it is cell-based.
Data set [5] deals with A-431 (human epidermoid carcinoma) cells. Description: MTT cell viability, A-431 tumor cells. Type of data set: cell-based. Particulars: 24 h, p < 0.001.
Data set [6] deals with HEK-293 (human embryonic kidney) cells. In words: Cell viability, healthy HEK-293 cells. Particulars: 3 h. In kind it is cell-based.
Data set [7] has as its system B16F10 (murine skin melanoma) cells. Description: MTT cell viability, B16F10 tumor cells. Type of data set: cell-based. Particulars: 24 h, two independent experiments in triplicate, p < 0.001 vs untreated.
Data set [8] concerns Fusarium solani planktonic cells. More on the design: method as in PMID 17240982. Particulars: cited from earlier work.
For data set [9], the system named is C57BL/6 mice. In words: Toxicity observation in mice given Psd1 alone. In kind it is in vivo. On the procedure: Another group of animals received 1 mg/kg of Psd1 only (n = 9) to evaluate Psd1 toxicity. Twenty-one days later, the animals were anaesthetized and sacrificed, and the black lung melanoma nodules were counted and measured under a dissecting microscope (Zeiss AxioPhot fluorescence microscope (Carl-Zeiss, Oberkochen, Germany)).

Turning to “Psd1: 46-amino acid residue plant defensin isolated from pea seeds, expressed in Pichia pastoris (PDB 1JKZ) (KTCEHLADTYRGVCFTNASCDDHCKNKAHLISGTCHNWKCFCTQNC)”, the Body weight result in [1] was “gained weight throughout the assay”. Further, the “Affinity to cholesterol-enriched lipid bilayers” value in data set [2] was “does not show good affinity”. The “Antimicrobial activity against fungi” value in [3] was “well-documented antimicrobial activity against several fungal species”. Also, in [4], the HSP-2 cell viability entry was “no alteration in cell viability”. Besides, the “A-431 growth, result in words (MTT)” value in data set [5] (12.5 µM) is “decreased growth”. Moreover, in data set [5] (50 µM), the “Maximum reduction of A-431 growth (MTT)” value is listed as 20%. Besides, the HEK-293 cell viability result in data set [6] was “no alteration in cell viability”. Further, the “Reduction of B16F10 cell viability (MTT)” value is “approximately 50%” in [7] (25 µM) and approximately 60% in data set [7] (50 µM). Besides, in [8], the “Internalization and cell cycle effect” value was “internalized in Fusarium solani planktonic cells, directing their cell cycle impairment and causing fungal endoreduplication”. In addition, the “Inflammation in lung tissue, weight or vital signal losses” value in data set [9] (1 mg/kg Psd1 alone, over 21 days) is listed as “did not provoke inflammation in lung tissue or weight or vital signal losses over 21 days”. In data set [9] (Psd1 alone (1 mg/kg i.v.), vs PBS), the “Behavior signals / mortality” value is given as “did not present changes in important behavior signals, such as changes in locomotion, piloerection, diarrhea, or mortality”.
